# Measurements taken from patent US20230085307A1, “PYRIDAZINONE COMPOUND AND HERBICIDE” (NISSAN CHEMICAL CORPORATION, priority 2019, published 2023).
# Key:
# barnyard grass [1] = assay: Test Example 4: herbicidal effect by soil treatment (Table 19, symbol H); type: in vivo, barnyard grass (Echinochloa crus-galli); details: amount of applied herbicide 320 g/ha
# In short: (§1)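 Applied as a water-diluted emulsion, the compound was sprayed onto soil covering newly sown seeds. Evaluation came three weeks after application, in a greenhouse held at 25° C. to 30° C.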
# wild oat [2] = assay: Test Example 5: herbicidal effect by foliage application, plastic box (Table 20, symbol I); type: in vivo, wild oat (Avena fatua); details: foliage application, 320 g/ha, evaluated three weeks after application
# In short: (§2)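 Sow seeds spot-wise in sterilized diluvial soil; cover with ~1.5 cm soil. Grow 14 days in greenhouse, 25° C. to 30° C. Spray foliage with emulsion diluted to predetermined amount. Rate effect after 3 weeks.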
# lambsquarters [3] = assay: Test Example 5: herbicidal effect by foliage application, plastic box (Table 20, symbol O); type: in vivo, lambsquarters (Chenopodium album); details: foliage application, 320 g/ha, evaluated three weeks after application
# In short: as §2
# green foxtail [4] = assay: Test Example 4: herbicidal effect by soil treatment (Table 19, symbol G); type: in vivo, green foxtail (Setaria viridis); details: amount of applied herbicide 320 g/ha
# In short: as §1
# windgrass [5] = assay: Test Example 4: herbicidal effect by soil treatment (Table 19, symbol L); type: in vivo, windgrass (Apera spica-venti); details: amount of applied herbicide 320 g/ha
# In short: as §1
# oval-leafed pondweed = assay: Test Example 1: herbicidal activity, application before weed generation under submerged conditions (Table 16, symbol C); type: in vivo, oval-leafed pondweed (Monochoria vaginalis); details: 320 g/ha applied herbicide
# In short: (§3)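 Emulsion formulation, water-diluted to set dose, was put onto the flooded surface (4 cm depth, alluvial soil) the same day weeds were sown and 2.5-leaf rice transplanted. After 3 weeks at 25-30 °C under glass, each species was rated 0 (≤5% kill) to 5 (≥90% kill).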
# chickweed [6] = assay: Test Example 4: herbicidal effect by soil treatment (Table 19, symbol P); type: in vivo, common chickweed (Stellaria media); details: amount of applied herbicide 320 g/ha
# In short: as §1
# chickweed [7] = assay: Test Example 5: herbicidal effect by foliage application, plastic box (Table 20, symbol P); type: in vivo, common chickweed (Stellaria media); details: foliage application, 320 g/ha, evaluated three weeks after application
# In short: as §2
# redroot pigweed [8] = assay: Test Example 4: herbicidal effect by soil treatment (Table 19, symbol N); type: in vivo, redroot pigweed (Amaranthus retroflexus); details: amount of applied herbicide 320 g/ha
# In short: as §1
# green foxtail [9] = assay: Test Example 5: herbicidal effect by foliage application, plastic box (Table 20, symbol G); type: in vivo, green foxtail (Setaria viridis); details: foliage application, 320 g/ha, evaluated three weeks after application
# In short: as §2
# velvetleaf [10] = assay: Test Example 4: herbicidal effect by soil treatment (Table 19, symbol M); type: in vivo, velvetleaf (Abutilon theophrasti); details: amount of applied herbicide 320 g/ha
# In short: as §1
# rice flat sedge = assay: Test Example 3: herbicidal effect by foliage application, Wagner pot (Table 18, symbol E); type: in vivo, rice flat sedge (Cyperus iria); details: amount of applied herbicide 320 g/ha
# In short: (§4)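 Plants were sown in alluvial soil held under 0.1–0.5 cm standing water and grown 14 days in a greenhouse at 25–30 °C. An emulsifiable formulation, water-diluted to the set dose, was then sprayed onto the foliage, and effects were scored three weeks later using previously defined criteria.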
# windgrass [11] = assay: Test Example 5: herbicidal effect by foliage application, plastic box (Table 20, symbol L); type: in vivo, windgrass (Apera spica-venti); details: foliage application, 320 g/ha, evaluated three weeks after application
# In short: as §2
# wild oat [12] = assay: Test Example 4: herbicidal effect by soil treatment (Table 19, symbol I); type: in vivo, wild oat (Avena fatua); details: amount of applied herbicide 320 g/ha
# In short: as §1
# southern crabgrass [13] = assay: Test Example 5: herbicidal effect by foliage application, plastic box (Table 20, symbol F); type: in vivo, southern crabgrass (Digitaria ciliaris); details: foliage application, 320 g/ha, evaluated three weeks after application
# In short: as §2
# barnyard grass [14] = assay: Test Example 3: herbicidal effect by foliage application, Wagner pot (Table 18, symbol H); type: in vivo, barnyard grass (Echinochloa crus-galli); details: amount of applied herbicide 320 g/ha
# In short: as §4
# blackgrass [15] = assay: Test Example 4: herbicidal effect by soil treatment (Table 19, symbol J); type: in vivo, blackgrass (Alopecurus myosuroides); details: amount of applied herbicide 320 g/ha
# In short: as §1
# redroot pigweed [16] = assay: Test Example 5: herbicidal effect by foliage application, plastic box (Table 20, symbol N); type: in vivo, redroot pigweed (Amaranthus retroflexus); details: foliage application, 320 g/ha, evaluated three weeks after application
# In short: as §2
# Italian ryegrass [17] = assay: Test Example 5: herbicidal effect by foliage application, plastic box (Table 20, symbol K); type: in vivo, Italian ryegrass (Lolium multiflorum); details: foliage application, 320 g/ha, evaluated three weeks after application
# In short: as §2
# barnyard grass [18] = assay: Test Example 5: herbicidal effect by foliage application, plastic box (Table 20, symbol H); type: in vivo, barnyard grass (Echinochloa crus-galli); details: foliage application, 320 g/ha, evaluated three weeks after application
# In short: as §2
# Chinese sprangletop = assay: Test Example 3: herbicidal effect by foliage application, Wagner pot (Table 18, symbol D); type: in vivo, chinese sprangletop (Leptochloa chinensis); details: amount of applied herbicide 320 g/ha
# In short: as §4
# late watergrass = assay: Test Example 1: herbicidal activity, application before weed generation under submerged conditions (Table 16, symbol A); type: in vivo, late watergrass (Echinochloa oryzicola); details: 320 g/ha applied herbicide
# In short: as §3
# persian speedwell [19] = assay: Test Example 4: herbicidal effect by soil treatment (Table 19, symbol R); type: in vivo, Persian speedwell (Veronica persica); details: amount of applied herbicide 320 g/ha
# In short: as §1
# Japanese bulrush = assay: Test Example 1: herbicidal activity, application before weed generation under submerged conditions (Table 16, symbol B); type: in vivo, Japanese bulrush (Schoenoplectus juncoides); details: 320 g/ha applied herbicide
# In short: as §3
# persian speedwell [20] = assay: Test Example 5: herbicidal effect by foliage application, plastic box (Table 20, symbol R); type: in vivo, Persian speedwell (Veronica persica); details: foliage application, 320 g/ha, evaluated three weeks after application
# In short: as §2
# blackgrass [21] = assay: Test Example 5: herbicidal effect by foliage application, plastic box (Table 20, symbol J); type: in vivo, blackgrass (Alopecurus myosuroides); details: foliage application, 320 g/ha, evaluated three weeks after application
# In short: as §2
# lambsquarters [22] = assay: Test Example 4: herbicidal effect by soil treatment (Table 19, symbol O); type: in vivo, lambsquarters (Chenopodium album); details: amount of applied herbicide 320 g/ha
# In short: as §1
# southern crabgrass [23] = assay: Test Example 4: herbicidal effect by soil treatment (Table 19, symbol F); type: in vivo, southern crabgrass (Digitaria ciliaris); details: amount of applied herbicide 320 g/ha
# In short: as §1
# Italian ryegrass [24] = assay: Test Example 4: herbicidal effect by soil treatment (Table 19, symbol K); type: in vivo, Italian ryegrass (Lolium multiflorum); details: amount of applied herbicide 320 g/ha
# In short: as §1
# velvetleaf [25] = assay: Test Example 5: herbicidal effect by foliage application, plastic box (Table 20, symbol M); type: in vivo, velvetleaf (Abutilon theophrasti); details: foliage application, 320 g/ha, evaluated three weeks after application
# In short: as §2
compound,measurement,setting,value
Cc1nn(C)c(=O)c(-c2c(-c3cccc(F)c3)sc3ccc(F)cc23)c1O [2-201],"H: barnyard grass, herbicidal effect rating",barnyard grass [1],4 (Herbicidal rate of 70% or more and less than 90%)
same,herbicidal effect on I: wild oat (criteria 0-5),wild oat [2],0 (Herbicidal rate of 5% or less (almost no effect))
same,herbicidal effect on O: lambsquarters (criteria 0-5),lambsquarters [3],5 (Herbicidal rate of 90% or more (almost completely withered))
same,"G: green foxtail, herbicidal effect rating",green foxtail [4],3 (Herbicidal rate of 40% or more and less than 70%)
same,"L: windgrass, herbicidal effect rating",windgrass [5],0 (Herbicidal rate of 5% or less (almost no effect))
same,Herbicidal effect on C: oval-leafed pondweed (grade 0-5),oval-leafed pondweed,0 (Herbicidal rate of 5% or less (almost no effect))
same,"P: chickweed, herbicidal effect rating",chickweed [6],3 (Herbicidal rate of 40% or more and less than 70%)
same,herbicidal effect on P: chickweed (criteria 0-5),chickweed [7],5 (Herbicidal rate of 90% or more (almost completely withered))
same,"N: redroot pigweed, herbicidal effect rating",redroot pigweed [8],5 (Herbicidal rate of 90% or more (almost completely withered))
same,herbicidal effect on G: green foxtail (criteria 0-5),green foxtail [9],4 (Herbicidal rate of 70% or more and less than 90%)
same,"M: velvetleaf, herbicidal effect rating",velvetleaf [10],4 (Herbicidal rate of 70% or more and less than 90%)
same,herbicidal effect on E: rice flat sedge,rice flat sedge,5 (Herbicidal rate of 90% or more (almost completely withered))
same,herbicidal effect on L: windgrass (criteria 0-5),windgrass [11],4 (Herbicidal rate of 70% or more and less than 90%)
same,"I: wild oat, herbicidal effect rating",wild oat [12],0 (Herbicidal rate of 5% or less (almost no effect))
same,herbicidal effect on F: southern crabgrass (criteria 0-5),southern crabgrass [13],4 (Herbicidal rate of 70% or more and less than 90%)
same,herbicidal effect on H: barnyard grass,barnyard grass [14],5 (Herbicidal rate of 90% or more (almost completely withered))
same,"J: blackgrass, herbicidal effect rating",blackgrass [15],0 (Herbicidal rate of 5% or less (almost no effect))
same,herbicidal effect on N: redroot pigweed (criteria 0-5),redroot pigweed [16],5 (Herbicidal rate of 90% or more (almost completely withered))
same,herbicidal effect on K: Italian ryegrass (criteria 0-5),Italian ryegrass [17],4 (Herbicidal rate of 70% or more and less than 90%)
same,herbicidal effect on H: barnyard grass (criteria 0-5),barnyard grass [18],5 (Herbicidal rate of 90% or more (almost completely withered))
same,herbicidal effect on D: Chinese sprangletop,Chinese sprangletop,4 (Herbicidal rate of 70% or more and less than 90%)
same,Herbicidal effect on A: late watergrass (grade 0-5),late watergrass,2 (Herbicidal rate of 20% or more and less than 40%)
same,"R: persian speedwell, herbicidal effect rating",persian speedwell [19],0 (Herbicidal rate of 5% or less (almost no effect))
same,Herbicidal effect on B: Japanese bulrush (grade 0-5),Japanese bulrush,2 (Herbicidal rate of 20% or more and less than 40%)
same,herbicidal effect on R: persian speedwell (criteria 0-5),persian speedwell [20],5 (Herbicidal rate of 90% or more (almost completely withered))
same,herbicidal effect on J: blackgrass (criteria 0-5),blackgrass [21],0 (Herbicidal rate of 5% or less (almost no effect))
same,"O: lambsquarters, herbicidal effect rating",lambsquarters [22],4 (Herbicidal rate of 70% or more and less than 90%)
same,"F: southern crabgrass, herbicidal effect rating",southern crabgrass [23],3 (Herbicidal rate of 40% or more and less than 70%)
same,"K: Italian ryegrass, herbicidal effect rating",Italian ryegrass [24],2 (Herbicidal rate of 20% or more and less than 40%)
same,herbicidal effect on M: velvetleaf (criteria 0-5),velvetleaf [25],5 (Herbicidal rate of 90% or more (almost completely withered))
